This is an account of results in patent US11021486B2, “Coumarin-like cyclic compound as MEK inhibitor and use thereof” (CSTONE PHARMACEUTICALS, priority 2017, dated 2021).

Where two headings read alike, the source gives them in different places.

One data set concerns A375 cells. As to the kind of experiment: Cell viability experiment (Cell Titer-Glo), A375. Format: cell-based. Particulars: Homo sapiens, A-375, 72 h. As to the method: (§1) Biological Test Method 2: Cell Viability Experiment
(§2) HT29 and A375 cells were plated in a 96-well cell culture plate at a density of 40,000 cells/well and 20,000 cells/well respectively, and the cells were cultured overnight. The compounds were serially diluted in a gradient of 1:3, the dilutions were added to the cell culture medium, and incubated with the cells in a 37° C. incubator for 3 days. The 96-well cell culture plate was taken from the incubator and equilibrated at room temperature for 30 minutes, then Cell Titer-Glo reagent (Promega Cat #G7573) was added at a ratio of 1:2, and the mixture was mixed thoroughly on a shaker for 2 minutes to promote cell lysis. The cell culture plate was incubated at room temperature for 10 minutes and then read on an Envision microplate reader (PerkinElmer). XLfit5 software was used for data analysis and mapping.

The next data set relates to HT29 cells. Kind of data set: Cell viability experiment (Cell Titer-Glo), HT29. Particulars: Homo sapiens, HT-29, 72 h. Format: cell-based, human. As to the method:
as §1, §2
(In general: In ATP-based viability assays light output follows the ATP content of the culture.)

In data set [1] the test system is HT-29 cell subcutaneous xenograft tumor. Kind of data set: In vivo pharmacodynamics study on HT-29 cell subcutaneous xenograft tumor model. Particulars: QD, 21 days. On the set-up: species or system BALB/c nude mouse. As to the method: Biological Test Method 3: In Vivo Pharmacodynamics Study on HT-29 Cell Subcutaneous Xenograft Tumor Model in BALB/c Nude Mouse
Human colon cancer HT-29 cells (ATCC-HTB-38) were cultured in monolayer in vitro, with McCoy's 5a medium (Gibco, 1835937) supplemented with 10% fetal bovine serum, 100 U/mL penicillin and 100 μg/mL streptomycin, at 37° C. under 5% CO2. The cells were conventionally digested with trypsin-EDTA and passaged twice a week. When the cell saturation was 80%-90%, the cells were collected, counted and inoculated. 0.1 mL (5×10^6) of HT-29 cells was subcutaneously inoculated into the right back of each nude mouse. […] The diameter of the tumor was measured twice a week with a vernier caliper. The tumor volume is calculated by the formula: V=0.5a×b^2, wherein a and b represent the length and width respectively. The antitumor activity of the compounds was evaluated by TGI (%), which reflects the tumor growth inhibition rate. Calculation of TGI (%): TGI (%)=[(1−(average tumor volume at the end of administration in a treatment group−average tumor volume at the start of treatment in this treatment group))/(average tumor volume at the end of treatment in the solvent control group−average tumor volume at the start of treatment in the solvent control group)]×100%.

A short description of data set [2]: Pharmacokinetics study of the compounds in C57BL/6 mice. Format: in vivo. Particulars: male, mouse, single intravenous and oral dose, plasma; for bioavailability: read-out: Bioavailability F; for AUC: read-out: Comcentration quadrature AUC; for half-life: read-out: Half life T1/2 (converted). The protocol:
Biological Test Method 4: Pharmacokinetics Study of the Compounds in C57BL/6 Mice Experimental Materials: C57BL/6 mice (male, 18-22 g, 7-9 weeks old, Shanghai Lingchang) Experimental Procedure: The pharmacokinetic characteristics of the compounds in rodents were determined after intravenous and oral administration of the compounds by standard protocols. In the experiment, candidate compounds were formulated into clear solutions, and intravenously and orally administrated to […] in a single dose. The menstruum for intravenous and oral administration was DMSO, PEG and water at a certain ratio or Solutol, HPMC and SLS aqueous solutions at a certain ratio. The whole blood samples within 24 hours were collected, centrifuged at 3,000 rpm for 15 minutes, and the supernatants were isolated to obtain plasma samples. An acetonitrile solution containing an internal standard with a volume of 4 times as the plasma sample volume was added to precipitate the protein. After centrifugation, the supernatant was collected and an equal volume of water was added. After centrifugation, the supernatant was collected and injected to quantitatively analyze the blood drug concentration by LC-MS/MS analysis method, and the pharmacokinetic parameters were calculated, e.g., peak concentration, peak time, clearance, half-life, area under the drug concentration-time curve, bioavailability, etc.

The target in the next data set is T1, activated MEK1 (Homo sapiens, UniProt Q02750).
T1 construct: purchased Millipore 14-429
T1 sequence (Q02750 whole entry): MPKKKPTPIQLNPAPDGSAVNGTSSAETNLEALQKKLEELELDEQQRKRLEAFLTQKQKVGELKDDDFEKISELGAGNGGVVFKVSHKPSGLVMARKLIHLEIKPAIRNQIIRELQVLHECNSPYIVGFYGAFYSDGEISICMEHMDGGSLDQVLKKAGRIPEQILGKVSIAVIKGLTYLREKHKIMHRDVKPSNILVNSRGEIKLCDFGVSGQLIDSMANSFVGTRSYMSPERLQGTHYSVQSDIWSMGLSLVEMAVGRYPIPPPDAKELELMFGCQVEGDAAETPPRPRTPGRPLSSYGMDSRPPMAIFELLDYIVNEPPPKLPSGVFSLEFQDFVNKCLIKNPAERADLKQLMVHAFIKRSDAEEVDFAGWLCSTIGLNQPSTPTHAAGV
Kind of data set: MEK Lance Ultra experiment. Format: biochemical. Particulars: 0.07 nM activated MEK1, 2 nM non-activated ERK, 50 μM ATP; read-out: MEK potency IC50. As to the method:
Biological Test Method 1: MEK Lance Ultra Experiment Compounds were serially diluted three-fold to 10 concentrations, two duplicates were set. Final test concentrations of the compounds ranged from 10 μM to 0.51 nM. 0.07 nM activated MEK1 (Millipore #14-429) and 2 nM non-activated ERK (Millipore #14-515) were mixed with the compounds or DMSO, the mixture was incubated at 23° C. for 30 minutes. Then 50 nM ULight labeled MBP (PerkinElmer #TRF0109-M) and 50 μM ATP (Invitrogen #PV3227) were added to initiate the reaction, and the mixture was incubated at 23° C. for 90 minutes. After the reaction was stopped by adding EDTA at a final concentration of 15 mM, 2 nM Eu-labeled anti-phosphorylated antibody (PerkinElmer #TRF0201-M) was added and incubated for 1 hour. The fluorescence signal data (excitation band: 320 nm; emission band: 665 nM/615 nM) was determined by an Envision microplate reader (PerkinElmer). XLfit5 software was used for data analysis and mapping.

Setting [3] is: A375 cells, 3 days incubation, read-out: A375 IC50.
Where [4] appears, read: HT29 cells, 3 days incubation, read-out: HT29 IC50.

By IC50 is commonly meant the concentration that inhibits the measured activity by half. A word on the TGI: it is how far tumour growth fell short of that in controls. A lower TGI goes with a weaker effect on the tumour. A word on the bioavailability: it is the share of a dose that reaches the circulation, judged against a reference dose that is usually intravenous. With `Cc1c(Nc2ccc(I)cc2F)c2c(=O)n(C3CC3)c(C)c(-c3cccc(NS(C)(=O)=O)c3)c2oc1=O` [WX066], the IC50 with A375 cells (setting [3]) turned out to be 4.58 nM. For the same compound, in the data set on HT29 cells (setting [4]), the IC50 turned out to be 7.44 nM. In data set [1] (0.5 mpk), this compound registered a TGI of 89%. Further, in data set [2], the clearance turned out to be 1.85 mL/min/kg, the bioavailability is 99.2%, the AUC is 28.6 µM·h and the half-life is 7.62 h. The IC50 at activated MEK1 came to 77.3 nM.
In the case of `Cc1c(Nc2ccc(I)cc2F)c2c(=O)n(C3CC3)c(C)c(-c3cccc(CS(C)(=O)=O)c3)c2oc1=O` [WX071], in the data set with A375 cells (setting [3]), the IC50 came out at 2.99 nM. Further, the IC50 in the data set on HT29 cells (setting [4]) is 4.05 nM. The TGI in data set [1] (0.5 mpk) is reported as 91%. Also, in data set [2], the clearance worked out at 0.912 mL/min/kg, the bioavailability came out at 83%, the AUC stood at 58.2 µM·h and the half-life was 5.28 h. For the same compound, the IC50 at activated MEK1 was 66 nM.
Turning to `Cc1c(NS(C)(=O)=O)cccc1-c1c(C)n(C2CC2)c(=O)c2c(Nc3ccc(I)cc3F)c(C)c(=O)oc12` [WX086], the IC50 with A375 cells (read-out: A375 IC50, A375 cells, 3 days incubation) stood at 0.4 nM. Further, the IC50 with HT29 cells (read-out: HT29 IC50, HT29 cells, 3 days incubation) is 0.62 nM. The TGI in data set [1] (0.5 mpk (0-11 D): 0.35 mpk (12-21 D)) worked out at 83.1%. In data set [2], the clearance is 2.2 mL/min/kg, the bioavailability is 76.8%, the AUC was 23.4 µM·h and the half-life is 7 h. The concentration for half-maximal inhibition (IC50) at activated MEK1 came to 29.6 nM.
